Data published in article PMC10541198, “Specific quinone reductase 2 inhibitors reduce metabolic burden and reverse Alzheimer’s disease phenotype in mice” (The Journal of Clinical Investigation, 2023).
“And” between values parts separate entries of the source, which are not always exact repeats. Equal entries are not always repeated.

Experiments:
5xFAD mice = test: Open field in 5xFAD mice; format: in vivo, mouse; settings: for hind-limb rearing frequency / maximum movement bout duration / meandering / proportion of time moving / total distance traveled / total movement duration / average velocity: 5xFAD 1 month; for Sup. Fig. 5-2C, open field parameter / Sup. Fig. 5-2D, open field parameter / Sup. Fig. 5-2E, open field parameter / Sup. Fig. 5-2F, open field parameter / Sup. Fig. 5-2G, open field parameter / Sup. Fig. 5-2H, open field parameter / Sup. Fig. 5-2I, open field parameter: individual animals
Procedure: Mice were individually placed within a cage and taken to a dimly lit room containing an open field arena 50 x 50 cm in size. They were gi ve n 10 min prior to be i ng placed within the arena, where f or a period of 5 min they were allowed to explore. Two weeks later, this was repeated. The mice were filmed with an Ikegami ICD-49E camera with EthoVision 14 (Noldus Information Technology). Th e fl oor was ei ther whit e or black,dependingon mous e coat c ol or, to allow automatic analysisof movement par am et ers, apar t from rearing which was manually counted. […]

C57BL/6 mice = test: Delay fear conditioning, microinjection to hippocampal CA1; format: in vivo, mouse
Procedure: In order to evaluate the efficacy of some of the leading QR2is in vivo, we carried out double-blind experiments using 2 different modalities (Supplemental Methods), measuring memory that is dependent on different brain areas. First, cortical memory was tested using incidental novel taste learning (see Methods), in which an unfamiliar, but palatable and safe, taste is given for the first time, and the memory for this newly learned taste is then assessed 2 days later. This is done by measuring the volume of the taste consumed upon subsequent exposure to it ([32]) (Figure 4A). […] Next, hippocampal-dependent learning was evaluated using delay fear conditioning (DFC; see Methods) ([33]). Mice were cannulated to the CA1 region of the hippocampus and were microinjected with YB-537 (1 μL of 5 μM, Figure 4, D and H) or vehicle. […] In order to evaluate any possible effect of acute QR2i microinjection on metabolic stress in the mouse brain, ISR activation was measured by quantifying total and phosphorylated eukaryotic initiation factor 2 α (eIF2α) levels (Supplemental Figure 3A) and lipid peroxidation product, 4-hydroxynonenal (4-HNE; Supplemental Figure 3B), by immunoblot 3 hours after the injection.
DFC was done as previously described ([7]). Briefly, mice were given 2 minutes to explore the conditioning chambers, during which baseline freezing was measured. Then, a 20 second, 4 kHz, 80 dB tone was given, coterminating with the start of a 2 second, 0.5 mA foot-shock. This was repeated twice more in 1 minute intervals. Following the third and last bout, 1 minute was given before the animals were removed from the chambers. The next day, the animals were returned to the room under the same conditions and were placed back into the chambers, and freezing to the context was measured over the course of 5 minutes. The next day, the mice were brought to unfamiliar conditioning rooms and chambers. In this unfamiliar context, the protocol from the first day was repeated, except without the foot shocks. Freezing for the cue was recorded, starting from the sounding of the first tone. All measurements were taken with a Sentec stc-tb33usb-at camera, and analysis was done with Freeze Frame software (Actimetrics). […]
Mice were anesthetized under 2% isoflurane, using an induction box (HME109, Highland Medical Equipment). They were placed in a stereotaxic device (Kopf Stereotaxic Alignment System, model 1900) under continuous 1% isoflurane anesthesia. Guide cannulas were implanted bilaterally to CA1 (from bregma: −1.9 mm AP, ±1.4 mm, −1.6 mm DV), cemented to the skull and fitted with 28- gauge dummy cannulas e xt e ndi ng 0.2 mm beyond the tip of the 1.2 mm guide cannulas. The mice were allowed at least 7 days of r ecover y before e xpe r im e nt at ion. The QR2 inhibitor YB-537 was dissolved in saline (0.9%). A total of 1μL of 5μM of YB-537 or vehicle was infused bilaterally to CA1, via a 28- gauge infusion cannula projecting 0.4 mm (drug delivery depth bregma: […]) beyond the guide cannula, connected by polyethylene tubing to a 10μL s yr i nge (Hamilton) ove r the course of 1m i n. The injection cannula was […]
kept for 60s inside the guide cannula in order prevent osmotic seepage of the doses upward through the cannula tract. Twenty minutes following the injection, animals underwent delay fear conditioning.
Following experimentation, animals were killed, brains were sliced in coronal sections, and cannula implantation was validated by imaging.
Incidental Tast e Learning […]
neophobia is highly conserved across species, as it is the fi rst line of defense against potentially poisonous, newly discovered foodstuffs.
However, once a memory for the taste is formed and no associated ill effect is learned, the taste becomes familiar and the animal consumes it more freely, especially if it is a pleasant, palatable taste. Thus, the stronger the memory for the safe, palatable taste, the more likely the animal will consume it(32, 56). […]

[1] = 5 μM to CA1, in % (unit assumed)

Cc1ccc(-c2cn3cccc(C)c3n2)cc1S(=O)(=O)N1CCNCC1 [YB-537]
hind-limb rearing frequency (5xFAD mice; both sexes): 35.72 ± 3.292
maximum movement bout duration (5xFAD mice; both sexes): 8.061 ± 1.322 s
meandering (5xFAD mice; both sexes): 733.4 ± 42.8 deg/cm
proportion of time moving (5xFAD mice; both sexes): 81.44 ± 1.134%
total distance traveled (5xFAD mice; both sexes): 3244 ± 237.9 cm
total movement duration (5xFAD mice; both sexes): 244.3 ± 3.402 s
average velocity (5xFAD mice; both sexes, n=16): 10.9 ± 0.800 cm/s
hind-limb rearing frequency (5xFAD mice; females): 35.29 ± 4.894
maximum movement bout duration (5xFAD mice; females): 9.677 ± 3.012 s
meandering (5xFAD mice; females): 696.3 ± 65.26 deg/cm
proportion of time moving (5xFAD mice; females): 81.84 ± 1.856%
total distance traveled (5xFAD mice; females): 3581 ± 484.5 cm
total movement duration (5xFAD mice; females): 245.5 ± 5.568 s
average velocity (5xFAD mice; females, n=7): 12.03 ± 1.625 cm/s
hind-limb rearing frequency (5xFAD mice; males): 36.06 ± 4.703
maximum movement bout duration (5xFAD mice; males): 6.804 ± 0.2919 s
meandering (5xFAD mice; males): 762.2 ± 58.17 deg/cm
proportion of time moving (5xFAD mice; males): 81.13 ± 1.5%
total distance traveled (5xFAD mice; males): 2983 ± 179.3 cm
total movement duration (5xFAD mice; males): 243.4 ± 4.5 s
average velocity (5xFAD mice; males, n=9): 10.01 ± 0.611 cm/s
Sup. Fig. 5-2C, open field parameter (5xFAD mice; Females): 10.98 and 10.27 and 10.24 and 21.02 and 13.07 and 7.45 and 11.20
Sup. Fig. 5-2D, open field parameter (5xFAD mice; Females): 3256.8 and 3049.8 and 3043.6 and 6259.0 and 3891.4 and 2217.1 and 3346.6
Sup. Fig. 5-2E, open field parameter (5xFAD mice; Females): 773.0 and 764.4 and 714.5 and 402.2 and 601.2 and 962.5 and 656.3
Sup. Fig. 5-2F, open field parameter (5xFAD mice; Females): 6.70 and 6.10 and 6.62 and 27.48 and 6.06 and 5.20 and 9.58
Sup. Fig. 5-2G, open field parameter (5xFAD mice; Females): 244.56 and 241.26 and 242.64 and 269.82 and 249.06 and 220.20 and 251.04
Sup. Fig. 5-2H, open field parameter (5xFAD mice; Females): 81.52 and 80.42 and 80.88 and 89.94 and 83.02 and 73.40 and 83.68
Sup. Fig. 5-2I, open field parameter (5xFAD mice; Females): 50 and 30.5 and 32 and 31.5 and 55 and 17 and 31
Sup. Fig. 5-2C, open field parameter (5xFAD mice; Males + Females): 10.98 and 10.27 and 10.24 and 21.02 and 7.23 and 10.34 and 8.54 and 12.00 and 10.63 and 9.25 and 12.61 and 11.34 and 8.16 and 13.07 and 7.45 and 11.20
Sup. Fig. 5-2D, open field parameter (5xFAD mice; Males + Females): 3256.8 and 3049.8 and 3043.6 and 6259.0 and 2163.2 and 3078.1 and 2557.7 and 3556.2 and 3161.5 and 2756.6 and 3753.0 and 3376.0 and 2440.2 and 3891.4 and 2217.1 and 3346.6
Sup. Fig. 5-2E, open field parameter (5xFAD mice; Males + Females): 773.0 and 764.4 and 714.5 and 402.2 and 993.0 and 822.7 and 744.6 and 500.6 and 644.6 and 955.7 and 543.5 and 756.2 and 899.4 and 601.2 and 962.5 and 656.3
Sup. Fig. 5-2F, open field parameter (5xFAD mice; Males + Females): 6.70 and 6.10 and 6.62 and 27.48 and 6.46 and 7.38 and 6.24 and 6.00 and 7.90 and 5.98 and 6.32 and 8.40 and 6.56 and 6.06 and 5.20 and 9.58
Sup. Fig. 5-2G, open field parameter (5xFAD mice; Males + Females): 244.56 and 241.26 and 242.64 and 269.82 and 228.20 and 238.00 and 244.72 and 264.44 and 254.26 and 226.58 and 258.62 and 243.36 and 232.42 and 249.06 and 220.20 and 251.04
Sup. Fig. 5-2H, open field parameter (5xFAD mice; Males + Females): 81.52 and 80.42 and 80.88 and 89.94 and 76.07 and 79.33 and 81.57 and 88.15 and 84.75 and 75.53 and 86.21 and 81.12 and 77.47 and 83.02 and 73.40 and 83.68
Sup. Fig. 5-2I, open field parameter (5xFAD mice; Males + Females): 50.0 and 30.5 and 32.0 and 31.5 and 12.5 and 27.5 and 35.0 and 60.5 and 43.0 and 34.0 and 45.0 and 44.0 and 23.0 and 55.0 and 17.0 and 31.0
Sup. Fig. 5-2C, open field parameter (5xFAD mice; Males): 12.00 and 10.63 and 9.25 and 12.61 and 11.34 and 8.16 and 7.23 and 10.34 and 8.54
Sup. Fig. 5-2D, open field parameter (5xFAD mice; Males): 3556.2 and 3161.5 and 2756.6 and 3753.0 and 3376.0 and 2440.2 and 2163.2 and 3078.1 and 2557.7
Sup. Fig. 5-2E, open field parameter (5xFAD mice; Males): 500.6 and 644.6 and 955.7 and 543.5 and 756.2 and 899.4 and 993.0 and 822.7 and 744.6
Sup. Fig. 5-2F, open field parameter (5xFAD mice; Males): 6.00 and 7.90 and 5.98 and 6.32 and 8.40 and 6.56 and 6.46 and 7.38 and 6.24
Sup. Fig. 5-2G, open field parameter (5xFAD mice; Males): 264.44 and 254.26 and 226.58 and 258.62 and 243.36 and 232.42 and 228.20 and 238.00 and 244.72
Sup. Fig. 5-2H, open field parameter (5xFAD mice; Males): 88.15 and 84.75 and 75.53 and 86.21 and 81.12 and 77.47 and 76.07 and 79.33 and 81.57
Sup. Fig. 5-2I, open field parameter (5xFAD mice; Males): 60.5 and 43 and 34 and 45 and 44 and 23 and 12.5 and 27.5 and 35
inter-trial learning during conditioning (C57BL/6 mice; 5 μM to CA1, n=6): normal inter-trial learning
freezing during conditioning (individual mice) (C57BL/6 mice; 5 μM to CA1, Baseline, in % (unit assumed)): 2.45 and 0.22 and 3.23 and 4.78 and 9.01 and 1.89
freezing during conditioning (individual mice) (C57BL/6 mice; 5 μM to CA1, CS/US 1, in % (unit assumed)): 13.08 and 8.81 and 18.16 and 10.01 and 26.70 and 2.54
freezing during conditioning (individual mice) (C57BL/6 mice; 5 μM to CA1, CS/US 2, in % (unit assumed)): 20.03 and 15.78 and 28.12 and 17.97 and 27.02 and 2.19
freezing during conditioning (individual mice) (C57BL/6 mice; 5 μM to CA1, CS/US 3, in % (unit assumed)): 24.88 and 20.00 and 35.58 and 21.40 and 33.02 and 2.33
freezing in response to the context (individual mice) (C57BL/6 mice; [1]): 59.92 and 49.69 and 57.37 and 25.70 and 41.84 and 33.92
freezing in response to the cue (individual mice) (C57BL/6 mice; [1]): 51.89 and 48.39 and 35.02 and 23.60 and 5.68 and 24.28
